# Laboratory results taken from US12370192B2, “Azole-fused pyridazin-3(2H)-one derivatives” (TAKEDA PHARMACEUTICAL COMPANY LIMITED, priority 2019, dated 2025).
# Experiments:
# [1] = molecular target: T1, human GPR139 receptor (Homo sapiens, UniProt Q6DWJ6); experiment: Measurement of GPR139 Activation Via Calcium Signaling (FLIPR, T-REx-CHO cells); assay type: cell-based; conditions: T-REx-CHO cells stably expressing human GPR139, 11-point dose response, 10 μM maximum concentration, read-out: GPR139 Potency (pEC50) (converted)
# T1 construct: expressed in transfected cells; host or cells: T-REx-CHO (Thermo Fisher Scientific), doxycycline-induced
# T1 sequence (Q6DWJ6 1-353): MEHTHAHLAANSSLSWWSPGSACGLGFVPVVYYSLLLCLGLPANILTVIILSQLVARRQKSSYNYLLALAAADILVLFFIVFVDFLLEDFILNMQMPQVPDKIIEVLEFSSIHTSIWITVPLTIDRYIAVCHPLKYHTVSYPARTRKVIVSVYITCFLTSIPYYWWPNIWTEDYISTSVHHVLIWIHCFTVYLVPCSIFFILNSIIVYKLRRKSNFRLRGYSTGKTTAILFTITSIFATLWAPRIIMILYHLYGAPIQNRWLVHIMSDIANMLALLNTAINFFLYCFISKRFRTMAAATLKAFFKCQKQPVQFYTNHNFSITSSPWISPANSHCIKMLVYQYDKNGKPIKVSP
# Description: Measurement of GPR139 Activation Via Calcium Signaling
# This cell-based assay measures the ability of compounds to activate GPR139 in stably transfected T-REx™-CHO cells. T-REx™-CHO cells (Thermo Fisher Scientific®) are stably expressed with human GPR139 receptor, whose expression is controlled by a tetracycline-inducible element. The cells are cultured in medium containing F-12K nutrient mixture-Kaighn's modification, TripleLE™ Express (1×)-phenol red, Dulbecco's phosphate-buffered saline (1×), 10% tetracycline-free FBS, Blasticidin S HCl (10 μg/mL) and Hygromycin B (200 μg/mL). The cells are introduced into the wells of a 384-well black clear bottom plate (Costar®) at 10,000 cells/well. GPR139 receptor expression is induced with 2 μg/mL doxycycline (Sigma D9891). The plate is allowed to stand at room temperature for 10-30 minutes and then incubated at 37° C. and 5% CO2 for 17 hours prior to assay.
# Culture media is removed from cells and 45 μL of 1× calcium dye (2.5 mM) is added to each well and incubated at 37° C. and 5% CO2 for 40 minutes. The plate is removed from the incubator and allowed to stand at RT for 20 minutes without a plate cover prior to measurement of calcium signaling. The calcium dye is prepared by adding 10 mL of assay buffer (Hank's Balanced Salt Solution (1×), 1 mM HEPES at pH 7.4) to one vial of calcium dye (FLIPR® Calcium 5 Assay Kit; Molecular Devices) at room temperature, vortexing the mixture until homogenous, and transferring the dye to a 250 mL flask using 10 mL of assay, buffer to rinse the vial. The dye is subsequently transferred to a conical flask, which is filled to the 200 mL mark with assay buffer, and 1 mL of […] probenecid solution (142.68 mg/mL in 1M NaOH aq) is added.
# Example compounds suspended in DMSO are received from compound management in microtiter plates (0.25 μL/well) and are diluted in assay buffer (25 μL). Following incubation of the cell plate, the Example compounds are added to the cells (11-point dose response, 10 μM maximum concentration) using a FLIPR® Tetra system (Molecular Devices) and fluorescence is measured continuously for 1 minute. EC50 curves are generated with a four-parameter logistic equation using GraphPad Prism® 6, and activation of GPR139 for each example compound is reported as pEC50.
# [2] = molecular target: T1, human GPR139 receptor; experiment: GPR139 Competition Binding (membrane-based, tritium-labeled ligand); conditions: T-REx-CHO membranes with human GPR139; 6.5 nM tritium-labeled ligand; 11-point curve, 30 μM maximum concentration; read-out: GPR139 Binding Affinity (pKi) (converted)
# Description: OPR139 Competition Binding
# This membrane-based assay measures the ability of compounds to competitively bind GPR139 in stably transfected TREx™-CHO membranes. To prepare the membranes, T-REx™-CHO (Thermo Fisher Scientific®) cells are stably expressed with human GPR139 receptor, whose expression is controlled by a tetracycline-inducible element. The cells are cultured in medium containing F-12K nutrient mixture-Kaighn's modification, 10% tetracycline-free FBS, Blasticidin S HCl (10 μg/mL) and Hygromycin B (200 μg/mL). GPR139 receptor expression is induced for 18 hours with 2 μg/mL doxycycline (Sigma D9891) in growth media. After addition of doxycycline, cells are harvested in PBS and pelleted by centrifugation for 5 minutes at 200×G. Liquid is aspirated off and cells are resuspended in ice cold lysis buffer (20 mM HEPES/5 mM EDTA pH 7.4/1× Roche® protease inhibitor). Samples are vortexed until homogenous and then placed on ice and homogenized using a Dounce homogenizer at 50% power (3 cycles, 10 strokes per cycle). Lysate is centrifuged at 4° C. for 10 minutes in a tabletop Sorvall® centrifuge at 2000×G. The supernatant is recovered and centrifuged in a Sorvall® ultracentrifuge at 35,000 rpm for 30 minutes at 4° C. The supernatant is discarded, and the remaining pellet resuspended in lysis buffer (20 mM HEPES/0.1 mM EGTA/Roche® protease inhibitor). Membrane protein concentration is determined using Thermo Fisher® BCA quantification kit and is aliquoted into microtubes. Tubes are snap frozen in liquid nitrogen and stored at −80° C. Prior to use, the membranes are removed from cold storage, thawed to room temperature, vortexed until homogenous and diluted in assay buffer (20 mM HEPES pH 7.3, 5 mM MgCl2, 1 mM CaCl2), 1× Thermo Scientific® Halt™ protease inhibitor (78429)).
# The assay is run in 96-well, polypropylene, v-bottom plates (Greiner Bio-One® 651201). Test compound in DMSO is added to the wells of each plate (11-point dose response curve, 30 μM maximum concentration, 3-fold serial dilution). A fixed amount of tritium-labeled ligand, (S)-2-(2,3-dimethyl-7-oxothieno[2,3-d]pyridazin-6(7H)-yl)-N-(1-(4-methoxyphenyl-2-t)propan-2-yl)acetamide (Quotient Bioresearch) in assay buffer (6.5 nM assay concentration) is added to each well of the assay plate, which is then agitated on a plate shaker for 30 seconds. Next, a fixed amount of membranes in assay buffer (2 μg membranes) is added to each well of the assay plate, which is then spun for 30 seconds at 300 rpm in a tabletop Eppendorf centrifuge, and then incubated at room temperature for 20 minutes. Using a Tomtec harvester, the contents of the assay plate are transferred to Filtermat A (PerkinElmer® No. 1450-421) which prior to use is pre-soaked in 0.5% PEI (Sigma P3143) for 3 hours and dried at room temperature overnight. Following transfer, the Filtermat is washed 5 times with cold wash buffer (20 mM HEPES pH 7.3, 100 mM NaCl). The Filtermat is dried using a microwave oven and placed in a sample bag (PerkinElmer® No. 1450-432) with a scintillator sheet (PerkinElmer® No. 1450-411). The scintillator sheet is melted to the Filtermat using a heat block set to 65° C., placed in a MicroBeta® cartridge and read using a MicroBeta® scintillation counter. Binding curves are generated with a four-parameter logistic equation using GraphPad Prism® 6 and the inhibition constant Ki is reported as pKi.
Structure (SMILES),EC50 [1] [nM],Ki [2] [nM]
Cc1ccc([C@H](C)NC(=O)Cn2nc(C)c3cnn(-c4ccccc4)c3c2=O)cc1 [Example 1],51.3,55
"COc1ccc([C@H](C)NC(=O)Cn2nc(C)c3cnn(-c4ccccc4)c3c2=O)cc1 [Example 2, (S)—N-(1-(4-methoxyphenyl)ethyl)-2-(4-methyl-7-oxo-1-phenyl-1,7-dihydro-6H-pyrazolo[3,4-d]pyridazin-6-yl)acetamide]",56.2,871
"CC(C)c1nn(CC(=O)N[C@@H](C)c2ccc(C(F)(F)F)cc2)c(=O)c2c1cnn2-c1ccccc1 [Example 4, (S)-2-(4-isopropyl-7-oxo-1-phenyl-1,7-dihydro-6H-pyrazolo[3,4-d]pyridazin-6-yl)-N-(1-(4-(trifluoromethyl)phenyl)ethyl)acetamide]",≥ 10000,91.2
"Cc1ccc([C@H](C)NC(=O)Cn2nc(C)c3cnn(-c4ccccc4)c3c2=O)c(F)c1 [Example 6, (S)—N-(1-(2-fluoro-4-methylphenyl)ethyl)-2-(4-methyl-7-oxo-1-phenyl-1,7-dihydro-6H-pyrazolo[3,4-d]pyridazin-6-yl)acetamide]",≥ 10000,23.4
"CC(C)c1nn(CC(=O)N[C@@H](C)c2ccc(OC(F)(F)F)cc2)c(=O)c2c1cnn2-c1ccccc1 [Example 7, (S)-2-(4-isopropyl-7-oxo-1-phenyl-1,7-dihydro-6H-pyrazolo[3,4-d]pyridazin-6-yl)-N-(1-(4-(trifluoromethoxy)phenyl)ethyl)acetamide]",≥ 10000,162
"Cc1ccc([C@H](C)NC(=O)Cn2nc(C(C)C)c3cnn(-c4ccccc4)c3c2=O)c(F)c1 [Example 8, (S)—N-(1-(2-fluoro-4-methylphenyl)ethyl)-2-(4-isopropyl-7-oxo-1-phenyl-1,7-dihydro-6H-pyrazolo[3,4-d]pyridazin-6-yl)acetamide]",≥ 10000,27.5
"COc1ccc([C@H](C)NC(=O)Cn2nc(C)c3c(c(C(C)C)nn3C)c2=O)cc1F [Example 10, (S)—N-(1-(3-fluoro-4-methoxyphenyl)ethyl)-2-(3-isopropyl-1,7-dimethyl-4-oxo-1H-pyrazolo[3,4-d]pyridazin-5(4H)-yl)acetamide]",79.4,120
"Cc1ccc([C@H](C)NC(=O)Cn2nc(C)c3cnn(C(C)(C)C)c3c2=O)cc1 [Example 13, (S)-2-(1-(tert-butyl)-4-methyl-7-oxo-1,7-dihydro-6H-pyrazolo[3,4-d]pyridazin-6-yl)-N-(1-(p-tolyl)ethyl)acetamide]",102,20.9
"Cc1nn(CC(=O)N[C@@H](C)c2ccc(C(F)(F)F)cc2)c(=O)c2c1cnn2C(C)(C)C [Example 14, (S)-2-(1-(tert-butyl)-4-methyl-7-oxo-1,7-dihydro-6H-pyrazolo[3,4-d]pyridazin-6-yl)-N-(1-(4-(trifluoromethyl)phenyl)ethyl)acetamide]",617,37.2
"C[C@H](NC(=O)Cn1ncc2ccn(C)c2c1=O)c1ccc(C(F)(F)F)cc1 [Example 164, (S)-2-(1-methyl-7-oxo-1,7-dihydro-6H-pyrrolo[2,3-d]pyridazin-6-yl)-N-(1-(4-(trifluoromethyl)phenyl)ethyl)acetamide]",–,200

# The remaining lines, values ahead:
EC50 [1] [nM],Ki [2] [nM],Structure (SMILES)
≥ 10000,72.4,"Cc1ccc([C@H](C)NC(=O)Cn2nc(C(C)C)c3cnn(-c4ccccc4)c3c2=O)cc1 [Example 3, (S)-2-(4-isopropyl-7-oxo-1-phenyl-1,7-dihydro-6H-pyrazolo[3,4-d]pyridazin-6-yl)-N-(1-(p-tolyl)ethyl)acetamide]"
224,93.3,"Cc1nn(CC(=O)N[C@@H](C)c2ccc(OC(F)(F)F)cc2)c(=O)c2c1cnn2-c1ccccc1 [Example 5, (S)-2-(4-methyl-7-oxo-1-phenyl-1,7-dihydro-6H-pyrazolo[3,4-d]pyridazin-6-yl)-N-(1-(4-(trifluoromethoxy)phenyl)ethyl)acetamide]"
2750,107,"Cc1ccc([C@H](C)NC(=O)Cn2nc(C(C)C)c3cnn(C(C)(C)C)c3c2=O)cc1 [Example 11, (S)-2-(1-(tert-butyl)-4-isopropyl-7-oxo-1,7-dihydro-6H-pyrazolo[3,4-d]pyridazin-6-yl)-N-(1-(p-tolyl)ethyl)acetamide]"
2140,33.9,"CC(C)c1nn(CC(=O)N[C@@H](C)c2ccc(C(F)(F)F)cc2)c(=O)c2c1cnn2C(C)(C)C [Example 12, (S)-2-(1-(tert-butyl)-4-isopropyl-7-oxo-1,7-dihydro-6/1-pyrazolo[3,4-d]pyridazin-6-yl)-N-(1-(4-(trifluoromethyl)phenyl)ethyl)acetamide]"
617,57.5,"Cc1nn(CC(=O)N[C@@H](C)c2ccc(OC(F)(F)F)cc2)c(=O)c2c1cnn2C(C)(C)C [Example 15, (S)-2-(1-(tert-butyl)-4-methyl-7-oxo-1,7-dihydro-6H-pyrazolo[3,4-d]pyridazin-6-yl)-N-(1-(4-(trifluoromethoxy)phenyl)ethyl)acetamide]"
–,30200,"Cc1nn(C2CC2)c2cnn(CC(=O)N[C@H](c3ccccc3)C3CC3)c(=O)c12 [Example 173, (S)—N-(cyclopropyl(phenyl)methyl)-2-(1-cyclopropyl-3-methyl-4-oxo-1,4-dihydro-5H-pyrazolo[3,4-d]pyridazin-5-yl)acetamide]"
